Patent EP4603105A1, “PHARMACEUTICAL COMPOSITION CONTAINING CYCLIC COMPOUND HAVING SELECTIVE KRAS INHIBITORY EFFECT AGAINST HRAS AND NRAS” (CHUGAI SEIYAKU KABUSHIKI KAISHA, priority 2022, dated 2024)
*1 amine or outer side, *2 acyl side, *3 side chain or, on linkers, in order; H or OH if unused. Where a SMILES comes first, the peptide text is derived from it. Bridges are numbered along the chain shown (N, C = ends). [ ]: non-standard residue; d: D form. The star is where a group is joined. hPhe(3,5-F2-4-CF3) = N[C@@H](CCc1cc(F)c(C(F)(F)F)c(F)c1)C(=O)O; hPhe(3-Cl-4-CF3) = N[C@@H](CCc1ccc(C(F)(F)F)c(Cl)c1)C(=O)O; NPrPhe(4-CF3) = CCCN[C@@H](Cc1ccc(C(F)(F)F)cc1)C(=O)O; X45 = CCCN([C@@H](CC1CCC(F)(F)CC1)C(=O)[*:2])[*:1]; X15 = CCCN([C@@H](Cc1ccccc1)C(=O)[*:2])[*:1]; NMeGly(cPent) = CN[C@H](C(=O)O)C1CCCC1; αMeI = CC[C@H](C)[C@](C)(N)C(=O)O; NMeD = CN[C@@H](CC(=O)O)C(=O)O; NMeL = CN[C@@H](CC(C)C)C(=O)O; Pip = O=C(O)[C@@H]1CCCCN1; Morpholide = C1CN(*)CCO1; NMeA = CN[C@@H](C)C(=O)O; Ac5c = NC1(C(=O)O)CCCC1; Aze = O=C(O)[C@@H]1CCN1; Sar = CNCC(=O)O

Experiments:
HRAS wild-type protein = HRAS wild-type protein (Homo sapiens, UniProt P01112); experiment: Binding to HRAS by surface plasmon resonance (SPR), KD and KD ratio to KRAS
Procedure, shortened: (§1)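 SPR, 30°C: Avi-biotin RAS·GDP captured via Biotin CAPture (~100–300 RU); running buffer HBS pH 7.4, 1 mM DTT, 10 mM MgCl2, 0.01% Tween 20, 10 µM GDP, 4% DMSO. Single-cycle kinetics, 100 µL/min, 75 s injections; 1:1 model → KD.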

[1] = system: human lung cancer strain NCI-H441; assay type: cell-based
Procedure, shortened: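 Proliferation was scored by […] measured after the reagent was added to cultures kept at 37°C in 5% carbon dioxide.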

[2] = molecular target: GDP-bound NRAS wild-type protein (Homo sapiens, UniProt P01111); experiment: Binding to NRAS by surface plasmon resonance (SPR), KD and KD ratio to KRAS
Procedure, shortened: as §1

[3] = ratio of the KD value with respect to HRAS wild-type protein to the KD value with respect to KRAS
[4] = ratio of the KD value with respect to GDP-bound NRAS wild-type protein to the KD value with respect to KRAS
[5] = ratio of KD for HRAS wild-type protein to KD for KRAS
[6] = ratio of KD for GDP-bound NRAS wild-type protein to KD for KRAS
[7] = ratio of KD value for HRAS wild-type protein to KD value for KRAS (SPR)
[8] = ratio of KD value for GDP-bound NRAS wild-type protein to KD value for KRAS (SPR)

Chain of GDP-bound NRAS wild-type protein (P01111 whole entry): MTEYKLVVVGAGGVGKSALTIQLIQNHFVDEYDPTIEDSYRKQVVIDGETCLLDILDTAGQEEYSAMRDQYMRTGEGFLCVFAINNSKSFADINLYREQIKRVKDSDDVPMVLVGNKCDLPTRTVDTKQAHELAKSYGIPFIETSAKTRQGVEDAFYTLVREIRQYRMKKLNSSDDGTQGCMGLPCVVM
Chain of HRAS wild-type protein (P01112 whole entry): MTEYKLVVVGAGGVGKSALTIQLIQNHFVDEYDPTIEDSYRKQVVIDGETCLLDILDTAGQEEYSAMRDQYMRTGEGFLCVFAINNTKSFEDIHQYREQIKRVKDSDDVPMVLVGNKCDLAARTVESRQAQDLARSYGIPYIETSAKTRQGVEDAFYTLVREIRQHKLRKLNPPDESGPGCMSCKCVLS

Q: CCCN1C(=O)CN(C)C(=O)CN(C)C(=O)[C@H]([C@@H](C)CC)NC(=O)[C@H](CC(C)C)N(C)C(=O)C[C@@H](C(=O)N2CCOCC2)N(C)C(=O)[C@H](C2CCCC2)N(C)C(=O)[C@](C)([C@@H](C)CC)NC(=O)[C@@H]2CCCN2C(=O)[C@H](CCc2cc(F)c(C(F)(F)F)c(F)c2)NC(=O)CN(C)C(=O)[C@@H]1Cc1ccc(C(F)(F)F)cc1 [PP0757] ([NMeL]I[Sar][Sar][NPrPhe(4-CF3)][Sar][hPhe(3,5-F2-4-CF3)]P[αMeI][NMeGly(cPent)][NMeD]-Morpholide; lactam N-11) was tested. Which “HRAS /KRAS” value (HRAS wild-type protein; [3]) did it give?
A: C (A compound having a KD ratio of 0.1 or more and less than 3 is denoted as C)

Q: And the IC50 [1]?
A: 0.48 µM

Q: What about the “NRAS /KRAS” value [2, 4] of the same compound?
A: B (a compound having 3 or more and less than 10 is denoted as B)

Q: With CCO[C@@H]1C[C@H]2C(=O)NC3(CC(C)(C)C3)C(=O)N(C)[C@@H](C3CCCC3)C(=O)N(C)[C@H](C(=O)N3CCCC3)CC(=O)N(C)[C@H]3CCC/C=C/c4ccc(cc4)C[C@@H](C(=O)N(C)CC(=O)N[C@@H](CCc4cc(F)c(C(F)(F)F)c(F)c4)C(=O)N2C1)N1CC/C=C\C[C@@H](C1=O)N(C)C(=O)CN(C1CC1)C(=O)[C@H]([C@@H](C)CC)NC3=O [PP2583] as the compound, how does the “HRAS /KRAS” value (HRAS wild-type protein; [5]) read?
A: A (a compound having 10 or more and less than 20 is denoted as A)

Q: What about the IC50 [1] of the same compound?
A: 0.0041 µM

Q: What about the “NRAS /KRAS” value [2, 6] of the same compound?
A: A (a compound having 10 or more and less than 20 is denoted as A)

Q: Which results are given for CCCN1C(=O)CN(C)C(=O)CN(C)C(=O)[C@H]([C@@H](C)CC)NC(=O)[C@H](CC(C)C)N(C)C(=O)C[C@@H](C(=O)N2CCOCC2)N(C)C(=O)[C@H](C2CCCC2)N(C)C(=O)C2(CCCC2)NC(=O)[C@@H]2CCCCN2C(=O)[C@H](CCc2ccc(C(F)(F)F)c(Cl)c2)NC(=O)CN(C)C(=O)[C@@H]1Cc1ccc(C(F)(F)F)cc1 [PP0263] ([NMeL]I[Sar][Sar][NPrPhe(4-CF3)][Sar][hPhe(3-Cl-4-CF3)][Pip][Ac5c][NMeGly(cPent)][NMeD]-Morpholide; lactam N-11)?
A: HRAS /KRAS (HRAS wild-type protein; [5]): C (A compound having a KD ratio of 0.1 or more and less than 3 is denoted as C); IC50 [1]: 0.0192 µM; NRAS /KRAS [2, 6]: B (a compound having 3 or more and less than 10 is denoted as B)

Q: CCCN1C(=O)CN(C)C(=O)CN(C)C(=O)[C@H]([C@@H](C)CC)NC(=O)[C@H](CC(C)C)N(C)C(=O)C[C@@H](C(=O)N2CCOCC2)N(C)C(=O)[C@H](C2CCCC2)N(C)C(=O)C2(CCCC2)NC(=O)[C@@H]2CCCN2C(=O)[C@H](CCc2ccc(C(F)(F)F)c(Cl)c2)NC(=O)CN(C)C(=O)[C@@H]1Cc1ccccc1 [PP0211] ([NMeL]I[Sar][Sar][X15][Sar][hPhe(3-Cl-4-CF3)]P[Ac5c][NMeGly(cPent)][NMeD]-Morpholide; lactam N-11) was tested. Which “HRAS /KRAS” value (HRAS wild-type protein; [5]) did it give?
A: C (A compound having a KD ratio of 0.1 or more and less than 3 is denoted as C)

Q: And the IC50 [1]?
A: 0.0108 µM

Q: What about the “NRAS /KRAS” value [2, 6] of the same compound?
A: B (a compound having 3 or more and less than 10 is denoted as B)

Q: How did the “HRAS /KRAS” value (HRAS wild-type protein; [7]) turn out when CCC[C@H]1C(=O)N[C@@H]([C@@H](C)CC)C(=O)N(C)CC(=O)N(C)[C@H]2C/C=C\CCN(C2=O)[C@@H](Cc2ccc(C)cc2)C(=O)N(C)CC(=O)N[C@@H](CCc2cc(F)c(C(F)(F)F)c(F)c2)C(=O)N2C[C@H](C)C[C@H]2C(=O)N(C)C2(CCC2)C(=O)N(C)[C@@H](C2CCCC2)C(=O)N(C)[C@H](C(=O)N(C)C)CC(=O)N1C [PP1799] was run?
A: B (a compound having 3 or more and less than 10 is denoted as B)

Q: What about the IC50 [1] of the same compound?
A: 0.0076 µM

Q: And the “NRAS /KRAS” value [2, 8]?
A: B (a compound having 3 or more and less than 10 is denoted as B)

Q: What does the source list for CC[C@H](C)[C@@H]1NC(=O)[C@H](CC(C)C)N(C)C(=O)C[C@@H](C(=O)N2CCOCC2)N(C)C(=O)[C@H](C2CCCC2)N(C)C(=O)C2(CCCC2)NC(=O)[C@@H]2CCCN2C(=O)[C@H](CCc2ccc(C(F)(F)F)c(Cl)c2)NC(=O)CN(C)C(=O)[C@H](Cc2ccc(OC(F)(F)F)cc2)N2CCCCC[C@@H](C2=O)N(C)C(=O)CN(C)C1=O [PP0615]?
A: HRAS /KRAS (HRAS wild-type protein; [3]): B (a compound having 3 or more and less than 10 is denoted as B); IC50 [1]: 0.216 µM; NRAS /KRAS [2, 4]: B (a compound having 3 or more and less than 10 is denoted as B)

Q: Which “HRAS /KRAS” value (HRAS wild-type protein; [7]) does the source give for CCCN(C)C(=O)[C@@H]1CC(=O)N(C)[C@@H](COC)C(=O)N[C@@H]([C@@H](C)CC)C(=O)N(C)CC(=O)N(C)[C@H]2C/C=C\CCN(C2=O)[C@@H](Cc2ccc(C(F)(F)F)cc2)C(=O)N(C)CC(=O)N[C@@H](CCc2cc(F)c(C(F)(F)F)c(F)c2)C(=O)N2C[C@H](F)C[C@H]2C(=O)NC2(CC(C)(C)C2)C(=O)N(C)[C@@H](C2CCCC2)C(=O)N1C [PP1696] here?
A: A (a compound having 10 or more and less than 20 is denoted as A)

Q: What about the IC50 [1] of the same compound?
A: 0.0029 µM

Q: And the “NRAS /KRAS” value [2, 8]?
A: AA (a compound having 20 or more is denoted as AA)

Q: Which results are given for CC[C@H](C)[C@@H]1NC(=O)[C@H](C)N(C)C(=O)C[C@@H](C(=O)N(C)C)N(C)C(=O)[C@H](C2CCCC2)N(C)C(=O)C2(CCC2)NC(=O)[C@@H]2CC(F)(F)CN2C(=O)[C@H](CCc2cc(F)c(C(F)(F)F)c(F)c2)NC(=O)CN(C)C(=O)[C@H](Cc2ccc(C(F)(F)F)cc2)N2CC/C=C\C[C@@H](C2=O)N(C)C(=O)CN(C)C1=O [PP1103]?
A: HRAS /KRAS (HRAS wild-type protein; [5]): B (a compound having 3 or more and less than 10 is denoted as B); IC50 [1]: 0.0348 µM; NRAS /KRAS [2, 6]: A (a compound having 10 or more and less than 20 is denoted as A)

Q: Which results are given for CCO[C@@H]1C[C@H]2C(=O)NC3(CCC3)C(=O)N(C)[C@@H](C(CC)CC)C(=O)N3CCC[C@@H]3CC(=O)N(C)[C@@H](CC3CC3)C(=O)N[C@@H]([C@@H](C)CC)C(=O)N(C)CC(=O)N(C)[C@H]3C/C=C\CCN(C3=O)[C@@H](Cc3ccc(C(F)(F)F)cc3)C(=O)N(C)CC(=O)N[C@@H](CCc3cc(F)c(C(F)(F)F)c(F)c3)C(=O)N2C1 [PP1612]?
A: HRAS /KRAS (HRAS wild-type protein; [7]): B (a compound having 3 or more and less than 10 is denoted as B); IC50 [1]: 0.0619 µM; NRAS /KRAS [2, 8]: B (a compound having 3 or more and less than 10 is denoted as B)

Q: Which “HRAS /KRAS” value (HRAS wild-type protein; [3]) does the source give for CCCN1C(=O)[C@@H]2CCN2C(=O)[C@H](C)N(C)C(=O)[C@H]([C@@H](C)CC)NC(=O)[C@H](CC(C)C)N(C)C(=O)C[C@@H](C(=O)N2CCOCC2)N(C)C(=O)[C@H](C2CCCC2)N(C)C(=O)C2(CCCC2)NC(=O)[C@@H]2CCCN2C(=O)[C@H](CCc2ccc(C(F)(F)F)c(Cl)c2)NC(=O)CN(C)C(=O)[C@@H]1CC1CCC(F)(F)CC1 [PP0527] ([NMeL]I[NMeA][Aze][X45][Sar][hPhe(3-Cl-4-CF3)]P[Ac5c][NMeGly(cPent)][NMeD]-Morpholide; lactam N-11) here?
A: C (A compound having a KD ratio of 0.1 or more and less than 3 is denoted as C)

Q: And the IC50 [1]?
A: 0.0057 µM

Q: What about the “NRAS /KRAS” value [2, 4] of the same compound?
A: C (A compound having a KD ratio of 0.1 or more and less than 3 is denoted as C)

Q: Which “HRAS /KRAS” value (HRAS wild-type protein; [3]) does the source give for CCCN(C)C(=O)[C@@H]1CC(=O)N(C)[C@@H](CCOC)C(=O)N[C@@H]([C@@H](C)CC)C(=O)N(C)CC(=O)N(C)[C@H]2C/C=C\CCN(C2=O)[C@@H](Cc2ccc(C(F)(F)F)cc2)C(=O)N(C)CC(=O)N[C@@H](CCc2ccc(C(F)(F)F)c(OC)c2)C(=O)N2C[C@H](OCC)C[C@H]2C(=O)NC2(CC(C)(C)C2)C(=O)N(C)[C@@H](C2CCCC2)C(=O)N1C [PP1975] here?
A: A (a compound having 10 or more and less than 20 is denoted as A)

Q: And the IC50 [1]?
A: 0.0134 µM

Q: And the “NRAS /KRAS” value [2, 4]?
A: A (a compound having 10 or more and less than 20 is denoted as A)
